The assay deals with T1, AsPC-1 HiBiT-KRASG12D (Homo sapiens, UniProt P01116, G12D).
T1 construct: insert the HiBiT tag onto the N-terminus of one or more of the endogenous KRAS alleles; endogenous in cells; host or cells: AsPC-1 (ATCC CRL-1682), CRISPR-Cas9 knock-in clone, one tagged allele
Description: HiBiT degradation assay (G12D), AsPC-1 HiBiT-KRASG12D cells. Type of assay: cell-based. The settings on record: 24 hours treatment; for Dmax: ASPC1, AsPC-1 HiBiT-KRASG12D cells; for DC50: HiBiT luminescence. Summed up: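 AsPC-1 cells (homozygous G12D) carrying a CRISPR knock-in N-terminal HiBiT tag on endogenous KRAS were treated with compounds for 24 hours at 37° C, 5% CO2, in triplicate. Alamar blue viability was read first, then cells were washed and lysed with Nano-Glo HiBiT reagent for 45 minutes before luminescence reading.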
(With HiBiT, luminescence reflects the tagged protein that the partner subunit can reach.)

13 compounds from patent US20250206732A1, “COMPOUNDS AND METHODS FOR THE TARGETED DEGRADATION OF KRAS” (Arvinas Operations, Inc., priority 2022, published 2025) can be followed below.

T1 sequence (P01116 1-188 isoform P01116-2 G12D): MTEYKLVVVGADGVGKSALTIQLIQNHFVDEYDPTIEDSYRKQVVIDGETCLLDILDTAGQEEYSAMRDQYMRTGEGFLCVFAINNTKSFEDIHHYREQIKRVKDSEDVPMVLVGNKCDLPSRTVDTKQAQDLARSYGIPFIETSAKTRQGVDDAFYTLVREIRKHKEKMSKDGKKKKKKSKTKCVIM

What is called Dmax is the greatest extent of degradation seen. The DC50 is the midpoint of the concentration-degradation curve. Read a high DC50 as a less potent degrader. For `C#Cc1c(F)ccc2cc(O)cc(-c3ncc4c(N5CC6CCC(C5)N6)nc(OCCN5CCC(C(C)(C)N6CCN(c7cc([C@H](C(=O)N8C[C@H](O)C[C@H]8C(=O)N[C@@H](C)c8ccc(-c9scnc9C)cc8)C(C)C)on7)CC6)CC5)nc4c3F)c12` [Compound 175, (2S,4R)-1-[(2R)-2-(3-{4-[2-(1-{2-[(4-{3,8-diazabicyclo[3.2.1]octan-3-yl}-7-(8-ethynyl-7-fluoro-3-hydroxynaphthalen-1-yl)-8-fluoropyrido[4,3-d]pyrimidin-2-yl)oxy]ethyl}piperidin-4-yl)propan-2-yl]piperazin-1-yl}-1,2-oxazol-5-yl)-3-methylbutanoyl]-4-hydroxy-N-[(1S)-1-[4-(4-methyl-1,3-thiazol-5-yl)phenyl]ethyl] pyrrolidine-2-carboxamide], the greatest degradation seen (Dmax) (maximum degradation observed) lay within 80 to 100%. Besides, the half-maximal degradation concentration (DC50) (AsPC-1 HiBiT-KRASG12D cells) was < 600 nM.

The compound `CCc1cccc2cc(O)cc(-c3ncc4c(N5C[C@H]6CC[C@@H](C5)N6)nc(OCCN5CCC(C)(CN6CCN(c7cc([C@H](C(=O)N8C[C@H](O)C[C@H]8C(=O)N[C@@H](C)c8ccc(-c9scnc9C)cc8)C(C)C)on7)CC6)CC5)nc4c3F)c12` [Compound 187, (2S,4R)-1-((R)-2-(3-(4-((1-(2-((4-((1R,5S)-3,8-diazabicyclo[3.2.1]octan-3-yl)-7-(8-ethyl-3-hydroxynaphthalen-1-yl)-8-fluoropyrido[4,3-d]pyrimidin-2-yl)oxy)ethyl)-4-methylpiperidin-4-yl)methyl)piperazin-1-yl)isoxazol-5-yl)-3-methylbutanoyl)-4-hydroxy-N—((S)-1-(4-(4-methylthiazol-5-yl)phenyl)ethyl)pyrrolidine-2-carboxamide] gave a Dmax (maximum degradation observed) of 80 to 100%. The half-maximal degradation concentration (DC50) (AsPC-1 HiBiT-KRASG12D cells) is < 600 nM.

In turn, `CCc1cccc2cc(O)cc(-c3ncc4c(N5CC6CCC(C5)N6)nc(OCCN5CCC(CCOc6cc([C@H](C(=O)N7C[C@H](O)C[C@H]7C(=O)N[C@@H](C)c7ccc(-c8scnc8C)cc7)C(C)C)on6)CC5)nc4c3F)c12` [Compound 249] displayed a Dmax (maximum degradation observed) of 80 to 100%. Moreover, the half-maximal degradation concentration (DC50) (AsPC-1 HiBiT-KRASG12D cells) was < 600 nM.

On to `CCc1cccc2cc(O)cc(-c3ncc4c(N5CC6CCC(C5)N6)nc(OC[C@@H]5CC[C@@H](COC(=O)N6CC(Oc7cc([C@H](C(=O)N8C[C@H](O)C[C@H]8C(=O)N[C@@H](C)c8ccc(-c9scnc9C)cc8)C(C)C)on7)C6)N5C)nc4c3F)c12` [Compound 294], for which the maximal degradation (Dmax) (maximum degradation observed) is 80 to 100%. In addition, for the setting “AsPC-1 HiBiT-KRASG12D cells”, the 50% degradation concentration (DC50) was < 600 nM.

In turn, `CCc1cccc2cc(O)cc(-c3ncc4c(N5CC6CCC(C5)N6)nc(OC[C@]56CCCN5[C@@H](COC(=O)NCc5cc([C@H](C(=O)N7C[C@H](O)C[C@H]7C(=O)N[C@@H](C)c7ccc(-c8scnc8C)cc7)C(C)C)on5)CC6)nc4c3F)c12` [Compound 102, [(3R,7aR)-7a-{[(4-{3,8-diazabicyclo[3.2.1]octan-3-yl}-7-(8-ethyl-3-hydroxynaphthalen-1-yl)-8-fluoropyrido[4,3-d]pyrimidin-2-yl)oxy]methyl}-hexahydro-1H-pyrrolizin-3-yl]methyl N-({5-[(2R)-1-[(2S,4R)-4-hydroxy-2-{[(1S)-1-[4-(4-methyl-1,3-thiazol-5-yl)phenyl]ethyl]carbamoyl}pyrrolidin-1-yl]-3-methyl-1-oxobutan-2-yl]-1,2-oxazol-3-yl}methyl) carbamate] yielded a Dmax (maximum degradation observed) of 80 to 100%. Also, where the note is “AsPC-1 HiBiT-KRASG12D cells”, the DC50 was < 600 nM.

Under “maximum degradation observed”, `C#Cc1c(F)ccc2cc(O)cc(-c3ncc4c(N5CC6CCC(C5)N6)nc(OCCN5CCC(COc6cc([C@H](C(=O)N7C[C@H](O)C[C@H]7C(=O)N[C@@H](C)c7ccc(-c8ccnn8C)cc7)C(C)C)on6)CC5)nc4c3F)c12` (relative stereo) [Compound 85, (2S,4R)-1-[(2R*)-2-{3-[(1-{2-[(4-{3,8-diazabicyclo[3.2.1]octan-3-yl}-7-(8-ethynyl-7-fluoro-3-hydroxynaphthalen-1-yl)-8-fluoropyrido[4,3-d]pyrimidin-2-yl)oxy]ethyl}piperidin-4-yl)methoxy]-1,2-oxazol-5-yl}-3-methylbutanoyl]-4-hydroxy-N-[(1S)-1-[4-(1-methyl-1H-pyrazol-5-yl)phenyl]ethyl]pyrrolidine-2-carboxamide] registered a maximal degradation (Dmax) of 80 to 100%. Besides, the DC50 (AsPC-1 HiBiT-KRASG12D cells) was < 600 nM.

Regarding `CCc1cccc2cc(O)cc(-c3ncc4c(N5CC6CCC(C5)N6)nc(OCCN5CCC(CC6CCN(c7cc(C(C(=O)N8C[C@H](O)C[C@H]8C(=O)N[C@@H](C)c8ccc(-c9scnc9C)cc8)C(C)C)on7)CC6)CC5)nc4c3F)c12` (single isomer, unassigned) [Compound 320], for the setting “AsPC-1 HiBiT-KRASG12D cells”, the DC50 is < 600 nM. Further, the “AsPC-1 HiBiT-KRASG12D DMax” value (AsPC-1 HiBiT-KRASG12D cells, maximum degradation observed) is listed as “A (80% < A ≤ 100%)”.

For `CCc1cccc2cc(O)cc(-c3ncc4c(N5CC6CCC(C5)N6)nc(OC[C@]56CCCN5[C@H](COC(=O)N5CCN(c7cc([C@@H](C(=O)N8C[C@H](O)C[C@H]8C(=O)N[C@@H](C)c8ccc(-c9scnc9C)cc8)C(C)C)on7)[C@@H](C)C5)CC6)nc4c3F)c12` [Compound 124, [(3S,7aR)-7a-{[(4-{3,8-diazabicyclo[3.2.1]octan-3-yl}-7-(8-ethyl-3-hydroxynaphthalen-1-yl)-8-fluoropyrido[4,3-d]pyrimidin-2-yl)oxy]methyl}-hexahydro-1H-pyrrolizin-3-yl]methyl (3S)-4-{5-[(2S)-1-[(2S,4R)-4-hydroxy-2-{[(1S)-1-[4-(4-methyl-1,3-thiazol-5-yl)phenyl]ethyl]carbamoyl}pyrrolidin-1-yl]-3-methyl-1-oxobutan-2-yl]-1,2-oxazol-3-yl}-3-methylpiperazine-1-carboxylate], under “maximum degradation observed”, the Dmax is < 20%. Moreover, the DC50 (AsPC-1 HiBiT-KRASG12D cells) was < 600 nM.

`CCc1cccc2cc(O)cc(-c3ncc4c(N5CC6CCC(C5)N6)nc(OC[C@@]56CCCN5[C@H](COC(=O)N(C)Cc5cc([C@H](C(=O)N7C[C@H](O)C[C@H]7C(=O)N[C@@H](C)c7ccc(-c8scnc8C)cc7)C(C)C)on5)CC6)nc4c3F)c12` [Compound 90, [(3S,7aS)-7a-{[(4-{3,8-diazabicyclo[3.2.1]octan-3-yl}-7-(8-ethyl-3-hydroxynaphthalen-1-yl)-8-fluoropyrido[4,3-d]pyrimidin-2-yl)oxy]methyl}-hexahydro-1H-pyrrolizin-3-yl]methyl N-({5-[(2R)-1-[(2S,4R)-4-hydroxy-2-{[(1S)-1-[4-(4-methyl-1,3-thiazol-5-yl)phenyl]ethyl]carbamoyl}pyrrolidin-1-yl]-3-methyl-1-oxobutan-2-yl]-1,2-oxazol-3-yl}methyl)-N-methylcarbamate] displayed a Dmax (maximum degradation observed) of 80 to 100%. Besides, the DC50 (AsPC-1 HiBiT-KRASG12D cells) was < 600 nM.

Where the note is “maximum degradation observed”, `C#Cc1c(F)ccc2cc(O)cc(-c3ncc4c(N5CC6CCC(C5)N6)nc(OCCN5CC[C@H]6CN(c7cc([C@H](C(=O)N8C[C@H](O)C[C@H]8C(=O)N[C@@H](C)c8ccc(-c9scnc9C)cc8)C(C)C)on7)C[C@H]6C5)nc4c3F)c12` [Compound 183, (2S,4R)-1-[(2R)-2-{3-[(3aR,7aR)-5-{2-[(4-{3,8-diazabicyclo[3.2.1]octan-3-yl}-7-(8-ethynyl-7-fluoro-3-hydroxynaphthalen-1-yl)-8-fluoropyrido[4,3-d]pyrimidin-2-yl)oxy]ethyl}-octahydro-1H-pyrrolo[3,4-c]pyridin-2-yl]-1,2-oxazol-5-yl}-3-methylbutanoyl]-4-hydroxy-N-[(1S)-1-[4-(4-methyl-1,3-thiazol-5-yl)phenyl]ethyl]pyrrolidine-2-carboxamide] registered a Dmax of 80 to 100%. The half-maximal degradation concentration (DC50) (AsPC-1 HiBiT-KRASG12D cells) was < 600 nM.

As for `CCc1cccc2cc(O)cc(-c3ncc4c(N5CC6CCC(C5)N6)nc(OCCN5CCC(O)(CC6CCN(c7cc([C@@H](C(=O)N8C[C@H](O)C[C@H]8C(=O)N[C@@H](C)c8ccc(-c9scnc9C)cc8)C(C)C)on7)CC6)CC5)nc4c3F)c12` [Compound 205, (2S,4R)-1-[(2S)-2-(3-{4-[(1-{2-[(4-{3,8-diazabicyclo[3.2.1]octan-3-yl}-7-(8-ethyl-3-hydroxynaphthalen-1-yl)-8-fluoropyrido[4,3-d]pyrimidin-2-yl)oxy]ethyl}-4-hydroxypiperidin-4-yl)methyl]piperidin-1-yl}-1,2-oxazol-5-yl)-3-methylbutanoyl]-4-hydroxy-N-[(1S)-1-[4-(4-methyl-1,3-thiazol-5-yl)phenyl]ethyl]pyrrolidine-2-carboxamide], the maximal degradation (Dmax) (maximum degradation observed) was in the range of 20 to 60%. The compound also came in with a DC50 (AsPC-1 HiBiT-KRASG12D cells) of 1000 to 3000 nM.

Compound `CCc1cccc2cc(O)cc(-c3ncc4c(N5CC6CCC(C5)N6)nc(OCCN5CCC(F)(CN6CCN(c7cc([C@H](C(=O)N8C[C@H](O)C[C@H]8C(=O)N[C@@H](C)c8ccc(-c9ccnn9C)cc8)C(C)C)on7)CC6)CC5)nc4c3F)c12` [Compound 199, (2S,4R)-1-[(2R)-2-(3-{4-[(1-{2-[(4-{3,8-diazabicyclo[3.2.1]octan-3-yl}-7-(8-ethyl-3-hydroxynaphthalen-1-yl)-8-fluoropyrido[4,3-d]pyrimidin-2-yl)oxy]ethyl}-4-fluoropiperidin-4-yl)methyl]piperazin-1-yl}-1,2-oxazol-5-yl)-3-methylbutanoyl]-4-hydroxy-N-[(1S)-1-[4-(1-methyl-1H-pyrazol-5-yl)phenyl]ethyl] pyrrolidine-2-carboxamide] displayed a Dmax (maximum degradation observed) of 80 to 100%. The 50% degradation concentration (DC50) (AsPC-1 HiBiT-KRASG12D cells) is < 600 nM.

`C#Cc1c(F)ccc2cc(O)cc(-c3ncc4c(N5CC6CCC(C5)N6)nc(OCCN5CCC(F)(COc6cc([C@H](C(=O)N7C[C@H](O)C[C@H]7C(=O)N[C@@H](C)c7ccc(-c8scnc8C)cc7)C(C)C)on6)CC5)nc4c3F)c12` [Compound 153, (2S,4R)-1-[(2R)-2-{3-[(1-{2-[(4-{3,8-diazabicyclo[3.2.1]octan-3-yl}-7-(8-ethynyl-7-fluoro-3-hydroxynaphthalen-1-yl)-8-fluoropyrido[4,3-d]pyrimidin-2-yl)oxy]ethyl}-4-fluoropiperidin-4-yl)methoxy]-1,2-oxazol-5-yl}-3-methylbutanoyl]-4-hydroxy-N-[(1S)-1-[4-(4-methyl-1,3-thiazol-5-yl)phenyl]ethyl]pyrrolidine-2-carboxamide] yielded a Dmax (maximum degradation observed) of 80 to 100%. For the same compound, the half-maximal degradation concentration (DC50) (AsPC-1 HiBiT-KRASG12D cells) is < 600 nM.
